The values below come from patent US5227490A, “Fibrinogen receptor antagonists” (Merck & Co., Inc., priority 1992, dated 1993).

pIC50: −log10 of the molar value.

The subject of the first test is human platelets. The test can be described thus: ADP-stimulated platelet aggregation assay (gel-filtered human platelets). The class given is cell-based. Particulars: fibrinogen, CaCl2 1 mM, ADP-initiated, initial rate of increase of light transmittance, read-out: IC50 (inhibition of platelet aggregation). The source says: In addition to the following preparative procedures, several examples of in-vitro bioactivity of compounds within the scope of the present invention are indicated. To illustrate, one test which is used to evaluate fibrinogen receptor antagonist activity is based on evaluation of inhibition of ADP-stimulated platelets. Aggregation requires that fibrinogen bind to and occupy the platelet fibrinogen receptor site. Inhibitors of fibrinogen binding inhibit aggregation. In the ADP-stimulated platelet aggregation assay used to determine inhibition associated with the compounds claimed in the instant invention, human platelets are isolated from fresh blood, collected into acid citrate/dextrose by differential centrifugation followed by gel filtration on Sepharose 2 B in divalent ion-free Tyrode's buffer (pH 7.4) containing 2% bovine serum albumin.
Platelet aggregation is measured at 37° C. in a Chronolog aggregometer. The reaction mixture contains gel-filtered human platelets (2×10^8 per ml), fibrinogen (100 micrograms per ml (ug/ml)), Ca^2+ (1 mM), and the compound to be tested. The aggregation is initiated by adding 10 μM ADP 1 minute after the other components are added. The reaction is then allowed to proceed for at least 2 minutes. The extent of inhibition of aggregation is expressed as the percentage of the rate of aggregation observed in the absence of inhibitor. The IC50 is the dose of a particular compound inhibiting aggregation by 50% relative to a control lacking the compound.
The test procedures employed to measure the anti-platelet aggregating activity of the compounds of the present invention are described below.
Blood was drawn into 0.1 volumes of acid citrate-dextrose (85 mM sodium citrate, 64 mM citric acid, 110 mM dextrose) by venipuncture from normal human volunteers. Platelet-rich plasma was prepared by centrifugation at 400× g for 12 minutes. PGEl (5 mg/ml) was added and platelets were collected by centrifugation at 800× g for 12 minutes. The platelet pellet was resuspended into human platelet buffer (140 mM NaCl, 7.9 mM KCl, 3.3 mM Na2 HPO4, 6 mM HEPES, 2% bovine serum albumin, 0.1% dextrose, pH 7.2) and filtered over Sepharose 2B that was previously equilibrated in human platelet buffer. Human fibrinogen ([…]) and Ca Cl2 (1 mM) were added and aggregation was initiated by the addition of […]. Aggregation was monitored by the initial rate of increase of light transmittance.
As to `O=C(O)C(CNCc1ccccc1)Cc1ccc(OCCCCC2CCNCC2)cc1` (centres unmarked) [CH2 NHCH2 Ph, 2-[4-(4-Piperidin-4-yl)butyloxy]phenylmethyl-3-(benzylamino)propanoic acid], the pIC50 is 4.74.

Take `O=C(O)C(Cc1ccc(OCCCCC2CCNCC2)cc1)CS(=O)(=O)Cc1ccccc1` (centres unmarked) [CH2 SO2 CH2 Ph, 2-[4-(4-N-piperidin-4-ylbutyloxy]phenylmethyl]-3-(benzylsulfonyl)propanoic acid]: the pIC50 is 5.80. Same read-out and setting: the figure for `O=C(O)C(Cc1ccc(OCCCCC2CCNCC2)cc1)C(=O)O` [CO2 H, 2-Carboxy-3-[4-(4-Piperidin-4-yl)butyloxyphenyl]propanoic acid] is 5.49; for `O=C(O)C(Cc1ccccc1)Cc1ccc(OCCCCC2CCNCC2)cc1` (centres unmarked) [CH2 Ph, 3-[4-(4-Piperidin-4-yl)butyloxyphenyl]-2-(benzyl)propanoic acid] it is 3.94. Consider `CCCCS(=O)(=O)NCC(Cc1ccc(OCCCCC2CCNCC2)cc1)C(=O)O` (centres unmarked) [CH2 NHSO2 C4 H9, 2-[4-(4-Piperindin-4-yl)butyloxy]phenylmethyl-3-(n-butylsulfonylamino)propanoic acid], for which the pIC50 was 5.54. `CCCCS(=O)(=O)CC(Cc1ccc(OCCCCC2CCNCC2)cc1)C(=O)O` (centres unmarked) [CH2 SO2 C4 H9, 2-[4-(4-Piperidin-4-yl)butyloxy]phenylmethyl-3-(n-butylsulfonyl)propanoic acid]: the pIC50 was 6.19. Regarding `O=C(O)C(O)Cc1ccc(OCCCCC2CCNCC2)cc1` (centres unmarked) [OH, 2-Hydroxy-3-[4-(4-piperidin-4-yl)butyloxyphenyl]propanoic acid], the pIC50 was 5.07.

In the case of `O=C(NCC(Cc1ccc(OCCCCC2CCNCC2)cc1)C(=O)O)c1ccccc1` (centres unmarked) [CH2 NHC(O)Ph, 2-[4-(4-Piperidin-4-yl)butyloxy]phenylmethyl-3-(benzoylamino)propanoic acid], the pIC50 was 5.51. Turning to `COC(=O)C(Cc1ccc(OCCCCC2CCNCC2)cc1)C(=O)O` (centres unmarked) [CO2 CH3, 2-(Carbomethoxy)-3-[4-(4-piperidin-4-yl)butyloxyphenyl]propanoic acid], the pIC50 was 5.24.

A further test relates to fibronectin and vitronectin.
Experiment: not given
Particulars: cited from earlier work.
Take “arginine-glycine-aspartic acid [Arg-Gly-Asp]”: the “activity of the tri-peptide” value is reported as “low activity”.

In the next test the test system is gpIIb/IIIa complex.
Experiment: not given
Particulars: snake venom polypeptides; cited from earlier work.
With Echistatin, the “affinity for the gpIIb/IIIa complex” value was “high affinity”.

By pIC50 is commonly meant −log10 of the IC50, conventionally taken in molar units.
